Assay results from the supplement of paper PMC10290057.

What was measured:
HCT116 [1] = test: AC50 cell viability (CellTiter-Glo); higher = less potent; conditions: 48 h
HCT116 [2] = test: efficacy (fitted maximal change in viability relative to DMSO control); higher = less cytotoxic (negative = loss of viability); conditions: 48 h
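For AC50 cell viability (CellTiter-Glo) in this document: HCT116 colorectal carcinoma cells screened at five concentrations per compound, luminescent viability scaled between DMSO wells and empty wells on each plate, curves fitted per compound.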
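For efficacy (fitted maximal change in viability relative to DMSO control) in this document: Luminescence-based viability readout, five doses per compound, normalized against on-plate DMSO and empty-well controls, followed by dose-response curve fitting for every drug.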

| Structure (SMILES) | AC50 cell viability (HCT116 [1]) [µM] | efficacy (HCT116 [2]) [%] |
| --- | --- | --- |
| Cc1cccc(CC(=O)N2CCc3c2ccc(-c2cn(C)c4ncnc(N)c24)c3F)n1 | 0.661 | -43.2 |
| O=[S+]([O-])(NCCNC/C=C/c1ccc(Br)cc1)c1cccc2cnccc12 [H-89] | 18.6 | -88.2 |
| CN(C)CCCNC(=O)c1ccc(-c2cc(O)c3ncccc3c2)cc1 [ML324] | 14.8 | -86.4 |
| Cc1cccc(Nc2nc(N[C@@H]3CCCC[C@@H]3N)ncc2C(N)=O)c1 | 7.42 | -94.8 |
| Cc1ccc(C(=O)Nc2cccc(C(F)(F)F)c2)cc1Nc1nc(-c2cccnc2)nc2c1cnn2C [NVP-BHG712] | 8.33 | -103 |
| O=C(Nc1nc2ccccc2n1CCN1CCOCC1)c1cccc([N+](=O)[O-])c1 [IRAK-1-4 Inhibitor I] | 14.8 | -64.8 |
| Cc1ccc(-c2ncn(-c3ccc(Nc4nccc(-c5cccc(N6CCOCC6)c5)n4)cc3)n2)cn1 [SR-3306] | 1.48 | -85.8 |
| CN1C/C=C/CCOc2cccc(c2)-c2ccnc(n2)Nc2cccc(c2)C1 [SB-1317] | 0.059 | -70.2 |
| CCN1C(=O)N\2CC3=CC(=CC(=C3[C@@H](C)\C=C2C14CCN(CC4)CC5=CC(=CC(=C5)C)C)OC)OC | 23.5 | -91.8 |
| Cc1cc(Nc2nc(N[C@@H](C)c3ccc(F)cc3)c(C#N)cc2F)n[nH]1 [AZ-960] | 5.9 | -100 |
| Cc1c(O)cccc1C(=O)NC(CSc1ccccc1)C(O)CN1CC2CCCCC2CC1C(=O)NC(C)(C)C (stereo not drawn) [Nelfinavir] | 20.9 | -101 |
| CC(N[C@H]1CCCC[C@@H]1NC(=O)c1ccc(Cl)cc1)c1cccc2ccccc12 (stereo partly drawn) [Calhex-231] | 9.34 | -92.8 |
| C=CCc1cccc(/C=N/NC(=O)CN2CCN(Cc3ccccc3)CC2)c1O [PAC-1] | 7.42 | -94.4 |
| CC(C)(c1ccc(OCC(O)CO)cc1)c1ccc(OCC(O)CCl)cc1 (stereo not drawn) [Ralaniten (EPI-001)] | 18.6 | -37 |
| CC(C)(O)/C=C\C(=O)[C@](C)(O)[C@H]1[C@H](O)C[C@]2(C)[C@@H]3CC=C4[C@@H](C=C(O)C(=O)C4(C)C)[C@]3(C)C(=O)C[C@@]12C [Cucurbitacin I] | 0.166 | -77.1 |
| CNC(=O)CCc1cc(-c2ccc(-c3ccc(C(F)(F)F)cc3)cc2)n(-c2ccc(N3CCNCC3)cc2)n1 [OSU-T315] | 6.61 | -90.4 |
| Cc1nc2ccc(-n3ncc(C(=O)c4cc5ccccc5[nH]4)c3N)cc2[nH]1 | 8.33 | -71.3 |
| Cc1c(CN2CCN(C(=O)[C@H](C)O)CC2)sc2c(N3CCOCC3)nc(-c3cnc(N)nc3)nc12 [GDC-0980] | 0.525 | -57.1 |
| Cc1nc(-c2cn3c(n2)-c2ccc(-c4cnn(C(C)(C)C(N)=O)c4)cc2OCC3)n(C(C)C)n1 [Taselisib (GDC-0032)] | 5.9 | -77.1 |
| CC1=CC=C(C=C1)N(C\C2=N\CCN2)C3=CC=CC(=C3)O [Phentolamine mesilate] | 20.9 | -60 |
| COc1ccc(-c2c(-c3ccc(O)cc3O)n[nH]c2C)cc1 [PDHK RIKEN] | 20.9 | -47.1 |
| COCCNCc1ccc(-c2cc3nccc(Oc4ccc(NC(=S)NC(=O)Cc5ccc(F)cc5)cc4F)c3s2)nc1 [Glesatinib] | 6.61 | -80.1 |
| CCN(CC)C(=S)SSC(=S)N(CC)CC [Disulfiram] | 16.6 | -101 |
| CC(C)c1c(C(=O)Nc2ccccc2)c(-c2ccccc2)c(-c2ccc(F)cc2)n1CC[C@@H](O)C[C@@H](O)CC(=O)O [Atorvastatin calcium] | 12.9 | -63.9 |
| N#Cc1c(C2CCNCC2)cc(-c2c(O)cccc2OCC2CC2)nc1N [IKK-2 Inhibitor VIII] | 10.5 | -89.2 |
| C[C@@H](NCc1cc2ccccc2[nH]1)c1cccc2ccccc12 [Calindol] | 13.2 | -94.8 |
| Cl.Cl.Cl.O[C@@H](COc1cccc2ncccc12)CN1CCN([C@@H]2c3ccccc3[C@@H]3[C@H](c4ccccc42)C3(F)F)CC1 [Zosuquidar trihydrochloride] | 16.6 | -97 |
| CCN(CC)CCCCNc1nc2cc(Cl)c(Cl)cc2nc1-c1ccc(-c2cccs2)s1 | 23.5 | -97.7 |
| COc1nnc2ccc(N3CCC(c4ccc(OCCN5CCN(C)C(=O)[C@H]5C)cc4)CC3)nn12 [AZD-5153 6-Hydroxy-2-naphthoic acid] | 0.0833 | -68.6 |
